Measured values as given in paper PMC4467461, “Small-molecule activation of SERCA2a SUMOylation for the treatment of heart failure” (Nature Communications, 2015).

Target: T1, SUMO E1 SAE1 V315F mutant (Homo sapiens, UniProt Q9UBE0+Q9UBT2, V315F)
T1 construct: GST (N); made in house; host or cells: Escherichia coli BL21
T1 sequence (Q9UBE0 1-346 V315F): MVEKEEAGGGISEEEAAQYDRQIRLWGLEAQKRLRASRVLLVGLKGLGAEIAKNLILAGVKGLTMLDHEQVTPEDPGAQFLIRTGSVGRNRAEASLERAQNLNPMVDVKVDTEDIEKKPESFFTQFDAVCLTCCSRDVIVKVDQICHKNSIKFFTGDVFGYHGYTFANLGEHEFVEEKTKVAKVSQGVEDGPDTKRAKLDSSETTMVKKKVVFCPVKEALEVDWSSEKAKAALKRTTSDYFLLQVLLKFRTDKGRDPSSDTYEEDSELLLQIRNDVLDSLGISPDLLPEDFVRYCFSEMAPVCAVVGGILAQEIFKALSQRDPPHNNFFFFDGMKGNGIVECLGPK
T1 sequence (Q9UBT2 1-640): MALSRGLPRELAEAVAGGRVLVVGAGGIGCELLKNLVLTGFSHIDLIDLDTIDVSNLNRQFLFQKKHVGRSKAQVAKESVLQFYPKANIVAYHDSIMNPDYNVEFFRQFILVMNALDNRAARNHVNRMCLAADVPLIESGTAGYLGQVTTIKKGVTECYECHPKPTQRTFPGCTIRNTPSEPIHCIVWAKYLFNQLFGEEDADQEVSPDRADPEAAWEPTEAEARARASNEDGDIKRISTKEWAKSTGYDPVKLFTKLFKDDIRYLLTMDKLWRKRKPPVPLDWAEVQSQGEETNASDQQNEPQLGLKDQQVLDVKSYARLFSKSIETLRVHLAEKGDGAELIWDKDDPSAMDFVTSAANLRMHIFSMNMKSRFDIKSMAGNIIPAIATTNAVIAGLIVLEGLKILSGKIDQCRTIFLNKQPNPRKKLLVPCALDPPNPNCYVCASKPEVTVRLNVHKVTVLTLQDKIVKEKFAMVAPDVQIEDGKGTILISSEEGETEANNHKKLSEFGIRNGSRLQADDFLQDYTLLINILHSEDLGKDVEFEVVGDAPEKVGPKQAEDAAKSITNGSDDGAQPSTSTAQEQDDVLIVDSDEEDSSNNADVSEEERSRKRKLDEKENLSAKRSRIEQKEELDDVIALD
Experiment: SUMO E1 activity assays with SAE1 V315F mutant
Format: biochemical
Experimental: Figure 3 SUMO-specific activating enzyme, E1, is a direct target of N106. Mechanism of action of N106 on individual steps in the SUMOylation cascade in vitro. (a) Inorganic pyrophosphate resulting from ATP hydrolysis in E1-catalysed SUMO-1 activation in the presence of increasing concentration of N106 compound was assessed by fluorogenic pyrophosphate assay kit. Recombinant human SUMO-specific E1 (0.05 μM), human Ubc9 (0.25 μM), human SUMO-1 (12.5 μM) and ATP (1 mM) were incubated with increasing concentration of N106 for 30 min at 37 °C and quantified using a fluorescence microplate reader. (b) The SAE2-SUMO-1 conjugation was detected followed by western blotting with anti-SAE2 antibodies. SUMO E1 (0.05 μM), SUMO-1 (12.5 μM) and ATP (1 mM) were co-incubated with increasing concentration of N106 for 30 min at 37 °C. The reaction mixtures were separated on 7.5% SDS–PAGE gel under non-reducing conditions. (c) E2-SUMO-1 conjugation was visualized by western blotting with anti-Ubc9 antibody. SUMO E1 (0.05 μM), Ubc9 (0.25 μM), SUMO-1 (12.5 μM) and ATP (1 mM) were incubated without or with increasing concentration of N106 for 30 min at 37 °C. […] (e) ATP hydrolytic activity of WT and mutant SUMO E1 are determined. (f) The E1-SUMO-1 conjugation was detected followed by western blot analysis with anti-SAE2 antibody. *The SAE2-SUMO-1 conjugated bands. […]

In the case of `COc1ccc(-c2nnc(Nc3nc4c(OC)cccc4s3)o2)cc1` [Compound N106, N-(4-methoxybenzo[d]thiazol-2-yl)-5-(4-methoxyphenyl)-1,3,4-oxadiazol-2-amine], the “ATP hydrolysis activity with N106, compared with wild-type protein” value (V315F mutant) is reported as “significantly lower” and the “SUMO E1-SUMO and SUMO E2-SUMO conjugations in the presence of N106, compared with WT” value (V315F mutant SAE1) is reported as “weaker”.
